In patent publication US11033556B2, “Bicyclic sulfonamides” (priority 2019, dated 2021) one finds EC50 data, which are given here for six molecules.

Read-outs that look alike come from different tables or passages of the source. Bounds are passed on as bounds.

Assay [1] relates to HBV. The assay is described as follows: HBV-DNA Antiviral Assay Using HepG2.2.15 Cells. It counts as cell-based. The settings on record: HepG2.2.15 cells, extracellular HBV DNA by qPCR, read-out: EC50. On the procedure:
The following assay procedure describes the HBV antiviral assay. This assay uses HepG2.2.15 cells, which have been transfected with HBV genome, and extracellular HBV DNA quantification as endpoint. Cell viability is assessed in parallel by measuring the intracellular ATP content using the CellTiter-Glo® reagent from Promega.
On day 0, HepG2.2.15 cells were seeded in 96-well plates at a density of 6.0×10^4 cells/well(0.1 ml/well). The cells were incubated at 37° C. and 5% CO2.
On day 1, the test articles were diluted and added to cell culture wells (8 concentrations, 4-fold dilution, in duplicate). GLS4, Tenofovir and Sorafenib were used as reference compounds. 100 μl of culture medium containing the compounds was added to the plate, and the final total volume per well was 200 μl. The final concentration of DMSO in the culture medium was 0.5%. The plate map of compound treatment is shown below. The cells were cultured at 37° C. and 5% CO2 for 3 days.
On day 4, the plates were refreshed with culture media with compounds.
On day 7, cell viability was assessed using the CellTiter-Glo®, and the cell culture supernatants were collected for determination of HBV DNA by qPCR.
Extracellular DNA was isolated with QIAamp 96 DNA Blood Kit per the manufacturer's manual. HBV DNA was then quantified by qPCR with HBV specific primers and probes as specified in Table 2 using the FastStart Universal MasterMix from Roche on an ABI-7900HT. The PCR cycle program consisted of 95° C. for 10 min, followed by 40 cycles at 95° C. for 15 sec and 60° C. for 1 min.
A DNA standard was prepared by dilution of the pAAV2 HBV1.3 plasmid with concentrations ranging from 10 to 1×10^7 […] and used to generate a standard curve by plotting Ct value vs. the concentration of the HBV plasmid DNA standard. The quantity of HBV DNA in each sample was determined by interpolating from the standard curve.
Cell viability was calculated as follows: % Cell viability=(luminescence value of test sample−average luminescence value of blank)/(average luminescence value of 0.5% DMSO control−average luminescence of blank)×100%. HBV DNA inhibition was calculated as follows: 100−(HBV DNA copy number of test sample−HBV DNA copy number of ETV)/HBV DNA copy number of 0.5% DMSO control−HBV DNA copy number of ETV)×100%. The CC50, EC50 and EC90 values were determined by dose-response curves fitted by GraphPad Prism using “log (agonist) vs. response—Variable slope”.
(In general: In qPCR the cycle at which signal appears reflects the starting amount.)

The test system of assay [2] is genotype D HBV. The assay is described as follows: HBV-DNA Antiviral Assay Using HepG2.117 Cells. The class given is cell-based. The conditions noted are these: intracellular HBV DNA by qPCR, day 4. On the procedure:
The following assay procedure describes the HBV antiviral assay, using HepG2.117 cells, which carry a stably integrated genotype D HBV genome under the control of a Tet-off promoter, and intracellular HBV DNA quantification as endpoint. Cell viability is assessed in parallel by measuring the intracellular ATP content using ATPlite (Perkin Elmer).
On day 0, HepG2.117 cells (which are maintained in routine cell culture with doxycycline present in the medium at a final concentration of 1 μg/mL) were seeded in 96-well plates (white with clear bottom) at a density of 2.0×10^4 cells/well (0.1 mL/well) in medium without doxycycline to induce pgRNA transcription and subsequent formation of HBV particles. The cells were incubated at 37° C. and 5% CO2.
On day 1, medium was removed from each well, the test articles were diluted in culture medium without doxcycyline and 100 μL was added to cell culture wells (9 concentrations, 4-fold dilution). For each plate, 6 untreated (merely DMSO) wells were included. The final concentration of DMSO in the culture medium was 2%. Each plate was prepared in duplicate (one for HBV DNA extraction, one for ATPlite measurement). The cells were incubated at 37° C. and 5% CO2 for 3 days.
On day 4, cell viability was assessed using ATPlite and cell lysates were prepared for HBV DNA extraction and subsequent quantification by qPCR.
Medium was removed from each well and 100 μL of 0.33% NP-40 in H2O was added to each well. Plates were sealed, incubated at 4° C. for 5 mins, vortexed extensively and centrifuged briefly. Next, 35 μL of lysate was added to 65 μL QuickExtract DNA Extraction Solution (Epicentre) in a PCR plate for each well. PCR plate was incubated at 65° C. for 6 mins, 98° C. for 2 mins and finally cooled to 4° C. HBV DNA was then quantified by qPCR with HBV-specific primers and probes as specified in Table 4 using the Bio-Rad SSOAdvanced Universal Probes Supermix on a CFX96 machine (Bio-Rad). The PCR cycle program consisted of 95° C. for 3 mins, followed by 40 cycles at 95° C. for 10 sec and 60° C. for 30 sec.
A DNA standard was prepared by dilution of an IDT gBlock corresponding to the amplicon with concentrations ranging from 10^2 to 10^8 copies/input (i.e. per 4 μL) and used to generate a standard curve by plotting Cq values vs. HBV DNA standard concentration. The quantity of HBV DNA in each sample was determined by interpolating from the standard curve.
Cell viability was calculated as follows: % Cell viability=(luminescence value of test sample)/(average luminescence value of 2% DMSO control)×100%. HBV DNA inhibition was calculated as follows: 100−(HBV DNA copy number of test sample)/(average HBV DNA copy number of 2% DMSO control)×100%. No normalization to entecavir was required due to the excellent dynamic window of this assay. The CC50, EC50 and EC90 values were determined by dose-response curves fitted by GraphPad Prism using “log (agonist) vs. response—Variable slope”.

The mark [3] stands for this setting: Hepatitis B virus, one class for the group of four: *at least 2 of the diastereomers have the indicated activity.

By EC50 is commonly meant the concentration at which the effect is half-maximal. Turning to `C=C[C@H]1COc2c(cn(C)c2C(=O)Nc2ccc(F)c(C#N)c2)S(=O)(=O)N1` [Compound 1, (3S)—N-(3-cyano-4-fluorophenyl)-3-ethenyl-7-methyl-1,1-dioxo-2H,3H,4H-11λ6-pyrrolo[3,4-b][1,4,5]oxathiazepine-6-carboxamide], the EC50 was under 1000 nM in assay [1] (day 7) and 1 to 10 nM in assay [2].

Turning to `C=C[C@@H](O)[C@H]1CCc2c(cn(C)c2C(=O)Nc2ccc(F)c(C#N)c2)S(=O)(=O)N1` [Compound 4A, (3R)—N-(3-cyano-4-fluorophenyl)-3-[(1R)-1-hydroxyprop-2-en-1-yl]-7-methyl-1,1-dioxo-2H,3H,4H,5H-1λ6-pyrrolo[3,4-f][1,2]thiazepine-6-carboxamide], the concentration for a half-maximal effect (EC50) in assay [1] (setting [3]) is under 1000 nM.

For the molecule `C=C[C@H](O)[C@H]1CCc2c(cn(C)c2C(=O)Nc2ccc(F)c(C#N)c2)S(=O)(=O)N1` [Compound 4B, (3R)—N-(3-cyano-4-fluorophenyl)-3-[(1S)-1-hydroxyprop-2-en-1-yl]-7-methyl-1,1-dioxo-2H,3H,4H,5H-1λ6-pyrrolo[3,4-f][1,2]thiazepine-6-carboxamide], in assay [1] (setting [3]), the EC50 was under 1000 nM.

Regarding `C=C[C@H](O)[C@@H]1CCc2c(cn(C)c2C(=O)Nc2ccc(F)c(C#N)c2)S(=O)(=O)N1` [Compound 4C, (3S)—N-(3-cyano-4-fluorophenyl)-3-[(1S)-1-hydroxyprop-2-en-1-yl]-7-methyl-1,1-dioxo-2H,3H,4H,5H-1λ6-pyrrolo[3,4-f][1,2]thiazepine-6-carboxamide], the EC50 in assay [1] (setting [3]) was under 1000 nM.

As to `C=C[C@@H](O)[C@@H]1CCc2c(cn(C)c2C(=O)Nc2ccc(F)c(C#N)c2)S(=O)(=O)N1` [Compound 4D, (3S)—N-(3-cyano-4-fluorophenyl)-3-[(1R)-1-hydroxyprop-2-en-1-yl]-7-methyl-1,1-dioxo-2H,3H,4H,5H-1λ6-pyrrolo[3,4-f][1,2]thiazepine-6-carboxamide], in assay [1] (setting [3]), the EC50 was under 1000 nM.

With `Cn1cc2c(c1C(=O)Nc1ccc(F)c(C#N)c1)OC[C@H](C=C(F)F)NS2(=O)=O` [Compound 6A], the concentration for a half-maximal effect (EC50) in assay [1] (Hepatitis B virus, 168 h, day 7) is under 1000 nM.
